Test results from patent US10137116B2, “Benzimidazole sulfide derivatives for the treatment or prevention of tuberculosis” (priority 2015, dated 2018).
Where two headings read alike, the source gives them in different places.

How the values were obtained:
Mtb H37Rv = assay: microbe, parasite or virus in culture; assay type: cell-based, Mycobacterium tuberculosis; conditions: for IC50: Mycobacterium tuberculosis, H37RV
[1] = test system: intracellular Mtb-GFP (Mtb-Erdman) in MRC-5 fibroblasts; assay: microbe, parasite or virus in culture; assay type: cell-based, Mycobacterium tuberculosis; conditions: for IC50 intracellular / IC50: table values in μM or words; for IC50: Mycobacterium tuberculosis, ERDMAN, MRC5, read-out: IC50 intracellular
[2] = table values in μM or words, read-out: IC50 against Mtb in broth

Cc1c(SCCN2CCc3ccccc3C2)ccnc1CSc1nc2ccccc2[nH]1
IC50 (Mtb H37Rv; [2]): 2.7 µM

COc1ccc2[nH]c(SCc3ncc(C)cc3C)nc2c1
IC50 against Mtb in broth (Mtb H37Rv; table values in μM or words): inactive
IC50 intracellular [1]: inactive

Cc1c(Cl)ccnc1CSc1nc2ccccc2[nH]1 [4-Desmethoxypropoxyl-4-chloro rabebrazole sulfide]
IC50 (Mtb H37Rv; read-out: IC50 (Mtb in broth)): 6 to 12 µM
IC50 (Mtb H37Rv; [2]): 6 to 12 µM
IC50 [1]: 6 µM

Cc1c(OCC(F)(F)F)ccnc1CS(=O)(=O)c1nc2ccccc2[nH]1
IC50 against Mtb in broth (Mtb H37Rv; table values in μM or words): Inactive
IC50 intracellular [1]: Inactive

5-hydroxy Lansoprazole potassium
activity in in vitro assay (Mtb H37Rv): inactive
activity in ex vivo assay ([1]; intracellular (ex vivo) assay): inactive

Cc1c(OCC(F)(F)F)ccnc1C[S+]([O-])c1nc2ccccc2[nH]1 (stereo not drawn) [R-Lansoprazole]
IC50 (Mtb H37Rv; read-out: IC50 (inhibit Mtb)): < 40 µM
IC50 (Mtb H37Rv; [2]): 32.8 µM
IC50 [1]: 1.47 µM

COCCCOc1ccnc(CSc2nc3ccccc3[nH]2)c1C [Rabeprazole sulfide]
IC50 (Mtb H37Rv; read-out: IC50 (Mtb in broth)): 5 µM
IC50 (Mtb H37Rv; [2]): 5 µM
IC50 [1]: 3 µM

COc1ccnc(C[S+]([O-])c2nc3cc(OC(F)F)ccc3[nH]2)c1OC.[Na+] (stereo not drawn)
IC50 against Mtb in broth (Mtb H37Rv; table values in μM or words): Inactive
IC50 intracellular [1]: Inactive
